Experimental data published in US6288111A (Research Development Foundation, priority 1995, dated 2001).
Like-named read-outs stand apart in the source and are kept apart here.

Columns and labels:
melanoma [1] = experiment: Clinical trial: response of melanoma patients to DDP alone, then TAM/DDP; assay type: in vivo, human
Excerpt: A complete response was defined as the complete disappearance of all evidence of disease for at least 4 weeks. A partial response was a decrease in the mean diameter of the target lesion by 50% or more lasting at least 4 weeks. A mixed response was a decrease in the diameter of some target lesions of 50% or more while others remained stable or increased in size.
Patients were retreated every 3 weeks. […] Subsequent patients received an ondansetron-based regimen.

[2] = tested on: T-289 human melanoma cells; experiment: Development of DDP resistance in T-289 cells (selection with DDP ± TAM, colony formation assay); assay type: cell-based
[3] = Plasma concentrations of TAM in patients; conditions: predicted from in vitro data
[4] = read-out: Steady-state plasma concentration; chronic administration, 10 mg p.o. twice a day; cited from earlier work
[5] = Clinical trial: toxicities with DDP or DDP/TAM treatment; conditions: in words
Excerpt: (§1) Entry requirements included histologically documented melanoma, measurable disease, signed informed consent, and no anti-tumor therapy during the previous 4 weeks. Patients were required to have normal hematologic and renal function, an Eastern Cooperative Oncology Group (ECOG) performance status of 0-2 and an estimated survival of at least 3 months. Patients with a previous history of deep venous thrombosis or pulmonary embolism were excluded.
(§2) Pre-treatment hydration consisted of 1 liter of 5% dextrose/0.45%saline containing 20 mEq of potassium chloride and 2 g magnesium sulfate administered over 4 hours. […] Patients were retreated every 3 weeks. On cycles where TAM was administered, 40 mg p.o. four doses per day were given on day 1 followed by 20 mg p.o. daily thereafter.

melanoma [6] = conditions: 203 treated melanoma patients; cited from earlier work
[7] = human, in vivo
Excerpt: as §1, §2

[8] = DDP alone: 24 patients, TAM/DDP: 20 patients (19 evaluated), after DDP alone
[9] = DDP alone: 24 patients, TAM/DDP: 20 patients, after DDP alone
[10] = of the 19 patients evaluated for TAM/DDP

With `N.N.[Cl][Pt][Cl]` [DDP, cis-diamminedichloroplatinum (II)] the “Duration of complete response” value (melanoma [1]; DDP alone, one patient) was “more than 15 months”, the “Stable off treatment after partial response” value (melanoma [1]; DDP alone, one patient) was at least 6 months and the “Time to progression after partial response” value (melanoma [1]; DDP alone, one patient) was 4 months. For the same molecule, the “Complete Response (%)” value (melanoma [1]; DDP alone: 24 patients) was 4%, the “Progressive Disease (number of patients)” value (melanoma [1]; DDP alone: 24 patients (two refused DDP/TAM), TAM/DDP: 20 patients) was 19 patients and the “Stable Disease (number of patients)” value (melanoma [1]; DDP alone: 24 patients, TAM/DDP: 20 patients) was 2 patients. For the same molecule, the “Mixed Response (number of patients)” value (melanoma [1]; [8]) was 0 patients, the “Partial Response (number of patients)” value (melanoma [1]; [8]) was 2 patients and the “Complete Response (number of patients)” value (melanoma [1]; [9]) was “One”. The “Partial Response (%)” value (melanoma [1]; [9]) was 8%, the “Complete Response (number of patients)” value (melanoma [1]; DDP alone: 24 patients, TAM/DDP: 20 patients, after DDP alone, listed as Cisplatin) was 1 patients and the “Progressive disease while receiving single agent DDP (number of patients)” value (melanoma [1]; [10]) was 17 patients. The “Stable disease while receiving single agent DDP (number of patients)” value (melanoma [1]; [10]) was 2 patients, the “Time at which DDP resistance became apparent” value ([2]; T-289, selection) was 200 days and the “Rate of emergence of DDP resistance, DDP alone compared with DDP and TAM” value ([2]; T-289, p<0.01) was 2.75 fold.

For `CC/C(=C(\c1ccccc1)c1ccc(OCCN(C)C)cc1)c1ccccc1` [TAM, tamoxifen], the “Outcome of treatment in words” value (melanoma [1]; TAM and DDP in patients resistant to single agent DDP) was “can overcome established resistance to DDP in a significant fraction of patients with malignant melanoma”, the “Plasma concentration predicted to be necessary in DDP resistant patients” value [3] was “more than 1.0 μM” and the “Effect on development of DDP resistance” value ([2]; T-289, concurrent DDP and TAM, in words) was “can delay the development of DDP resistance”. For the same molecule, the concentration [4] was about 290 nM, the Nephrotoxicity [5] was “nephrotoxicity was uncommon and unaffected by the administration of TAM” and the “Overall toxicity / tolerability” value [5] was “No increased toxicity was noted with the addition of TAM to single agent DDP”. The Nausea or vomiting ([5]; during hospitalization for ondonsetron) was “did not increase nausea or vomiting” and the “Response rate, single agent TAM” value (melanoma [6]) was 6%.

For `Cc1nccn1CC1CCc2c(c3ccccc3n2C)C1=O` (stereo not drawn) [ondonsetron], the Nausea or vomiting [7] was “markedly reduced nausea and vomiting during hospitalization”.
